From patent US20180346430A1, “TRIFLUOROACETYL HYDRAZIDE COMPOUNDS AND METHODS OF PREPARATION AND USES THEREOF” (GUANGHOU MAGPIE PHARMACEUTICALS CO., LTD., priority 2014, published 2018)

What was measured:
PC12 cells [1] = assay: Protective effect on IAA-induced PC12 cell injury (MTT); format: cell-based; conditions: FIG. 3
Experimental: PC12 cells were seeded on a 96-well plate and inoculated in a 5% CO2 incubator at 37° C. for 24 hours. Then 100 μl of IAA (50 μM) was added for induction for 2 hours. Two hours later, the medium was aspirated, and each of the compounds (T-006, TMP, Edaravone) was added and the cells were cultured for 24 hours. After 24 hours of incubation, MTT was added to each well. Four hours later, the absorbance was measured at 570 nm using a microplate reader. […] Compared with the IAA group, ****P<0.0001.

PC12 cells [2] = assay: Protective effect on t-BHP-induced PC12 cell injury (MTT); format: cell-based; conditions: FIG. 4
Experimental: PC12 cells were seeded on a 96-well plate and inoculated in a 5% CO2 incubator at 37° C., for 24 hours. Then each compound (T-006, TMP, Edaravone) was added in different concentration gradients to pre-incubated for 2 hours. Two hours later, the medium was aspirated, and 100 μl t-BHP (100 μM) was added to each well except those of the control group, then the cells were cultured in an incubator for 24 hours. Four hours later, MTT was added into each of the wells, and the absorbance was measured at 570 nm using a microplate reader. […] Compared with t-BHP group, ****P<0.0001.

Cortical neurons [3] = assay: Protective effect on IAA-induced cortical neuronal injury (MTT); format: cell-based, SD fetal rat; conditions: FIG. 5
Experimental: Cortical neurons of E16-18 day SD fetal rat were seeded on a 96-well plate and inoculated in a 5% CO2 incubator at 37° C. for 8 days. On day 8, each of the compounds (T-006, TMP, Edaravone) was added with different concentration gradients, and 50 μl IAA (40 μM) was added to each well except those of the control group. Then the neurons were set to incubator to cultivate for 24 hours, and then MTT was added to each well. Four hours later, the absorbance was measured at 570 nm using a microplate reader. […] Compared with the IAA group, ****P<0.0001.

Cortical neurons [4] = assay: Protective effect on t-BHP-induced cortical neuronal injury (MTT); format: cell-based, SD fetal rat; conditions: FIG. 6
Experimental: Cortical neurons of E16-18 days SD fetal rat were seeded on a 96-well plate and inoculated in a 5% CO2 incubator at 37° C. for 8 days. […] The neurons were set to incubator to cultivate for 24 hours, and then MTT was added to each well. Four hours later, the absorbance value was measured at 570 nm using a microplate reader. […] Compared with the t-BHP group, ****P<0.0001.

[5] = tested on: Primary cerebellar granule cells; assay: Protective effect on glutamate-induced cerebellar granule injury (MTT); format: cell-based, SD fetal rat; conditions: pre-incubated 2 h, glutamate 75 μM 24 h, concentration-dependent, **P<0.01 vs glutamate group, FIG. 7
Experimental: (§1) Primary cerebellar granule cells, extracted from 7-8 day, 15-20 g SD fetal rat, were seeded on a 96-well plate and inoculated in a 5% CO2 incubator at 37° C. for 8 days. On day 8, 90 μL of the compound (T-006) was added with different concentration gradients, then the cells were set to an incubator to cultivate for 2 hours. Then 10 μL of glutamate (final concentration of 75 μM) was added to each well except those of the control group. The cells were set to incubator to cultivate for 24 hours, and then MTT was added to each well. Four hours later, the absorbance value was measured at 570 nm using a microplate reader. […] Compared with the glutamate group, **P<0.01.

[6] = tested on: Primary cerebellar granule cells; assay: Protective effect on MPP+-induced cerebellar granule injury (MTT); format: cell-based, SD fetal rat; conditions: pre-incubated 2 h, MPP+ 35 μM 24 h, concentration-dependent, **P<0.01 vs MPP+ group, FIG. 8
Experimental: as §1, with “days,” for “day,”, “MPP^+” for “glutamate”, “35” for “75”

[7] = tested on: MEF2 transcription activity in PC12 cells; assay: MEF2 luciferase reporter assay in stably transfected PC12 cells; format: cell-based; conditions: 24 h incubation, **P<0.01, FIG. 9
Experimental: The PC12 was transfected by cloning the MEF2 reporter gene pGreenFire1TM-MEF2-EF1 lentivector. Stable transfected PC12 cells, as cultured in a conventional manner, were seeded on a 96-well plate with T-006 added in different concentrations, were incubated for 24 h. The activity was measured by the Luciferase reporter assay kit (Promega, USA). […] Compared with the IAA group, **P<0.01.

[8] = tested on: Scopolamine-induced memory impairment in mice; assay: Scopolamine-induced memory impairment in mice, water maze test; format: in vivo, Kunming mice; conditions: for Improvement of scopolamine-induced memory impairment: water maze, **p<0.01 vs scopolamine model group, FIG. 10A, 10B
Experimental: In this example, Kunming mice were selected and divided into normal control group (Ctrl), Scopolamine group (Sco), Donepezil treatment group (Sco+3 mg/kg donepezil), 1 and 10 mg T-006 treatment group (Sco+1 mg/kg T-006 and Sco+10 mg/kg T-006). Intragastric administration was performed for two weeks, and after the final administration water maze test was conducted for 4 days. Thirty minutes before the test, abdominal injection of scopolamine (1 mg/kg) and model were performed. On day 5, space search test was conducted, and data were expressed as Mean±SD (n=9 per group).

PC12 cells [9] = assay: Differentiation of PC12 cells into neurons with synapse growth; format: cell-based; conditions: 72 h, **P<0.01 vs control group, FIG. 11
Experimental: PC12 cells were seeded on 6-well plate and inoculated in a 5% CO2 incubator at 37° C. for 24 hours. Control group was unchanged; NGF control group: serum-free F-12K+50 ng/mL NGF; drug treatment group: serum-free F-12K with different concentrations of T-006. After 72 hours of incubation, picture was taken under an inverted microscope with 5 shoots at random for each hole. If the cell synapse length is more than 2 times the cell, it can be regarded as cell differentiation and synapse formation. […] Compared with the control group, **P<0.01.

PC12 cells [10] = assay: t-BHP-induced apoptosis in PC12 cells (Hoechst staining); format: cell-based; conditions: pre-incubated 2 h, t-BHP 100 μM 24 h, FIG. 13A, 13B
Experimental: (§2) PC12 cells were seeded on a 96-well plate and inoculated in a 5% CO2 incubator at 37° C. for 24 hours, and then T-006 and TMP (100 M) in different concentration gradients were added to be pre-incubated for 2 hours. Then the medium was aspirated, and 100 μl t-BHP (100 μM) was added to each well except the wells of the control group, and the cells were cultured in an incubator for 24 hours. Hoechst working fluid was added and the number of PC12 cells was observed and counted under fluorescence microscope. […] (B) PC12 cell apoptosis statistics. […] PC12 cells were seeded on a 96-well plate and inoculated in a 5% CO2 incubator at 37° C. for 24 hours, and then T-006 and TMP (100 M) in different concentration gradients were added to be pre-incubated for 2 hours. 2 hours later, 100 μl t-BHP (100 μM) was added to each well except the control group for induction. After completion of the induction, JC-1 working solution was added to each well and mitochondrial membrane potential was monitored and analyzed using flow cytometry. Compared with the control group, ### p<0.001; compared with t-BHP, *p<0.05, **p<0.01 and ***p<0.001.

PC12 cells [11] = assay: t-BHP-induced mitochondrial membrane potential disorder in PC12 cells (JC-1, flow cytometry); format: cell-based; conditions: pre-incubated 2 h, t-BHP 100 μM, FIG. 13C
Experimental: as §2

PC12 cells [12] = assay: t-BHP-induced ROS and RNS in PC12 cells (DCF-DA, HFP, DAF-FM, DHR123 probes); format: cell-based; conditions: pre-incubated 2 h, t-BHP 100 μM 6 h; total ROS, hydroxyl radicals, nitric oxide radicals, peroxynitrite; FIG. 14A-14D
Experimental: PC12 cells were seeded on 6-well plate and inoculated in a 5% CO2 incubator at 37° C. for 24 hours, and then T-006 and TMP (100 M) in different concentration gradients were added to be pre-incubated for 2 hours. Then the medium was aspirated, and 100 μl t-BHP (100 μM) was added to each well except the wells of the control group, and the cells were cultured in an incubator for 6 hours. Consequently, DCF-DA probes, HFP probes, DAF-FM probes and DHR123 probes were added respectively to determine the total ROS, hydroxyl radicals, nitric oxide radicals and peroxynitrite. (A) DCF-DA probe for determining intracellular total ROS. (B) HFP probe for determining intracellular hydroxyl radicals. (C) DAF-FM probe for determining nitric oxide free radicals. (D) DHR123 probe for determining intracellular peroxynitrite. Compared with the control group, ### p<0.001; compared with t-BHP, *p<0.05, **p<0.01 and ***p<0.001.

[13] = comparison with TMP and Edaravone

Cc1ccc(N(/N=C/c2nc(C)c(C)nc2C)C(=O)C(F)(F)F)c(C)c1 [T-006]
Protective effect on IAA-induced PC12 cell injury (PC12 cells [1]; IAA 50 μM 2 h, then compound 24 h, MTT, ****P<0.0001 vs IAA group): significant protective effect
Protective effect on IAA-induced PC12 cell injury compared with TMP and Edaravone (PC12 cells [1]; [13]): much stronger than that of the parent compound TMP and Edaravone
Protective effect on t-BHP-induced PC12 cell injury compared with TMP or Edaravone (PC12 cells [2]; comparison with TMP or Edaravone): much stronger than that of the parent compound TMP or Edaravone
Protective effect on t-BHP-induced PC12 cell injury (PC12 cells [2]; pre-incubated 2 h, t-BHP 100 μM 24 h, MTT, ****P<0.0001 vs t-BHP group): significant protective effect
Protective effect on IAA-induced cortical neuronal injury (Cortical neurons [3]; IAA 40 μM, 24 h, MTT, ****P<0.0001 vs IAA group): significant protective effect
Protective effect on IAA-induced cortical neuronal injury compared with TMP and Edaravone (Cortical neurons [3]; [13]): much stronger than that of the parent compound TMP and Edaravone
Protective effect on t-BHP-induced cortical neuronal injury (Cortical neurons [4]; 24 h, MTT, ****P<0.0001 vs t-BHP group): significant protective effect
Protective effect on t-BHP-induced cortical neuronal injury compared with TMP and Edaravone (Cortical neurons [4]; [13]): much stronger than that of the parent compound TMP and Edaravone
Protective effect on glutamate-induced primary cerebellar granule injury [5]: significant protective effect
Protective effect on MPP+-induced primary cerebellar granule injury [6]: significant protective effect
MEF2 transcriptional activity in PC12 cells [7]: significantly activates ME12 transcriptional activity
Improvement of scopolamine-induced memory impairment ([8]; 1 mg/kg intragastric for two weeks): significantly improved the memory impairment induced by scopolamine
Improvement of scopolamine-induced memory impairment compared with 3 mg/kg donepezil group ([8]; 10 mg/kg T-006 vs 3 mg/kg donepezil, $p<0.05): significantly better than 3 mg/kg donepezil group
Improvement of scopolamine-induced memory impairment ([8]; 10 mg/kg intragastric for two weeks): significantly improved the memory impairment induced by scopolamine
Differentiation of PC12 cells into neurons, synapse formation and growth (PC12 cells [9]; serum-free F-12K, different concentrations, concentration-dependent): significantly promote differentiation of PC12 cells into neurons, synapse formation and growth
t-BHP-induced PC12 cell apoptosis (PC12 cells [10]): reduced t-BHP-induced PC12 cell apoptosis
t-BHP-induced mitochondrial membrane potential disorder in PC12 cells (PC12 cells [11]): improved t-BHP-induced mitochondrial membrane potential disorder
Elevation of ROS and RNS in t-BHP-induced PC12 cells (PC12 cells [12]): Reduced the Elevation of ROS and RNS

NGF: positive control NGF, 50 ng/mL, in the PC12 differentiation test
Differentiation of PC12 cells into neurons, synapse formation and growth (PC12 cells [9]; serum-free F-12K + 50 ng/mL NGF, positive control): significantly promote differentiation of PC12 cells into neurons, synapse formation and growth

COc1cc2c(cc1OC)C(=O)C(CC1CCN(Cc3ccccc3)CC1)C2 (centres unmarked) [donepezil, reference compound]
Improvement of scopolamine-induced memory impairment ([8]; 3 mg/kg intragastric for two weeks): significantly improved the memory impairment induced by scopolamine
